Data reported in PMC10992699, “Comparative structure activity and target exploration of 1,2-diphenylethynes in Haemonchus contortus and Caenorhabditis elegans” (International Journal for Parasitology: Drugs and Drug …, 2024).

How the values were obtained:
[1] = test system: adult females of Haemonchus contortus; assay: Motility of adult female H. contortus in vitro; format: cell-based; conditions: 40 μM
Experimental: Adult H. contortus were collected from the abomasa of sheep infected for 10 weeks, washed extensively with phosphate-buffered saline (PBS, pH 7.4) and subsequently in RPMI 1640 media supplemented with final concentrations of 2 mM L-glutamine, 100 IU/mL of penicillin, 100 μg/mL of streptomycin and 0.25 μg/mL of amphotericin B (Thermo Fisher Scientific, Scoresby, VIC, Australia; this supplemented RPMI was designated RPMI*). Female and male worms were collected and separated immediately prior to compound testing.
The activity of UMW-9729 and six derivatives (12, 14, 15, 16, 18 and 25) was assessed on adult female specimens of H. contortus in an established assay ([Taki et al., 2020]). The compound was added in triplicate to the wells of a 24-well plate (cat. no. 3524; Corning, USA) at a concentration of 40 μM in 500 μL of RPMI* (RPMI supplemented with final concentrations of 2 mM L-glutamine, 100 IU/mL of penicillin, 100 μg/mL of streptomycin and 0.25 μg/mL of amphotericin B; Thermo Fisher Scientific, Scoresby, VIC, Australia). Two positive-control compounds, monepantel and moxidectin, and a negative control containing 1 % (v/v) DMSO only, were included in triplicates on the same plate. Three adult females were added to each of the triplicate wells containing either the test compound or the controls and placed in a CO2 incubator (10 % (v/v) CO2, 40 °C, >90 % relative humidity) for 1 day. A video recording (30 s) of each well was taken at 3 h, 6 h, 12 h and 24 h during the total incubation period to assess the reduction in worm motility, which was scored as 3 (“good”), 2 (“low”), 1 (“very low”) or 0 (“no movement”; cf. [Taki et al., 2020]). For each test or control compound, the motility scores for each of the triplicate wells were calculated, normalised with reference to the negative control (100 % motility) and recorded as a percentage.

H. contortus xL3s = assay: H. contortus xL3 motility dose-response assay; format: cell-based, Haemonchus contortus
Experimental: Immediately prior to use in assays, H. contortus L3s were exsheathed via exposure to 0.15 % (v/v) sodium hypochlorite for 20 min at 38 °C ([Preston et al., 2015]), achieving an exsheathment rate of 90 %. The larvae were then immediately washed five times with 50 mL of sterile physiological saline (pH 7.0) by centrifugation at 2000×g (5 min) and resuspended (at a concentration of 300 xL3s per 50 μL) in sterile (autoclaved) lysogeny broth (LB; cf. [Bertani, 1951]; [Taki et al., 2021b]), supplemented with final concentrations of 100 IU/mL of penicillin, 100 μg/mL of streptomycin and 0.25 μg/mL of amphotericin B (Fungizone®, cat. No. 15240-062, Gibco, Thermo Fisher Scientific, Waltham, MA, USA); this supplemented LB was designated LB*.
The dose-response assay for H. contortus followed a well-established protocol ([Taki et al., 2021b]); it was employed to evaluate the potency of hit compounds against this nematode. Test compounds were assessed individually for an effect on the motility of xL3s (10-point, 2-fold serial dilution in LB*, 40 μM–[…]). […] A solution of LB* was used as a negative control. The test compounds and positive control compounds (monepantel and moxidectin) were arrayed in triplicate across individual flat-bottom 96-well microplates, with six wells on each plate containing the negative control. Added to each well were 300 xL3s of H. contortus in 50 μL of LB* to give a final volume of 100 μL. Plates were then placed in a CO2 incubator (10 % (v/v) CO2, 38 °C, >90 % humidity; Forma, model no. 311, Thermo Fisher Scientific, USA). […] Over a period of 15 min, disturbance of an infrared beam in individual wells was recorded as an ‘activity count’. Raw ‘activity counts’ for individual wells were normalised to the negative-controls. The compound concentrations were log10-transformed and fitted using a variable slope four-parameter equation, using the ordinary least squares fit model, employing Prism (v.9.1.0 GraphPad Software, San Diego, CA, USA). Larval development was established at 168 h of incubation with compound, as described previously ([Preston et al., 2015]). The phenotypes of larvae were examined using a microscope ([Preston et al., 2015]) and recorded.

C. elegans young adults = assay: C. elegans young adult motility dose-response assay; format: cell-based, Caenorhabditis elegans; conditions: young adults, 40 h incubation, three independent assays in triplicate
Experimental: The eggs were then washed five times with 15 mL of sterile M9 buffer (centrifugation at 500×g, 2 min). […] were collected from plates and washed twice with sterile M9 buffer by centrifugation (500×g, 2 min) to remove E. coli OP50, and then resuspended to a concentration of 100 larvae per 50 μL in sterile (autoclaved) LB*. The dose-response assay for C. elegans followed a well-established protocol ([Taki et al., 2021a]) and was employed to evaluate the potency of hit compounds against this nematode. […] Two compounds, monepantel (ZolvixTM; Elanco, Australia) and moxidectin ([…], France) were used as positive controls and prepared in the same manner as the test compounds. […] The test compounds and positive control compounds were arrayed in triplicate across individual flat-bottom 96-well microplates (cat. no. 3596; Corning, Corning, NY, USA), with six wells on each plate containing the negative control. Added to each well were 100 C. elegans in 50 μL of LB* to give a final volume of 100 μL. Plates were then placed in an incubator ([…], model no. IMP180, Thermo Fisher Scientific, USA) at 20 °C for 40 h. […] Over 15 min, disturbance of an infrared beam in individual wells was recorded as an 'activity count'. Raw 'activity counts' for each well were normalised to the negative controls. The compound concentrations were log10-transformed and fitted using a variable slope four-parameter equation, using the ordinary least squares fit model, employing the program Prism (v.9.1.0 GraphPad Software, San Diego, CA, USA).

With `Cn1nccc1-c1ccc(C#Cc2ccccc2)cc1` [Compound 25] the “reduction of worm motility, adult females of H. contortus” value (“reduction of worm motility” below) ([1]; 3 h time point) was “did not display a reduction in motility”, the “reduction of worm motility” value ([1]; 6 h time point) was “did not display a reduction in motility” and the “reduction of worm motility” value ([1]; 12 h time point) was “did not display a reduction in motility”. For the same compound, the “fold increased activity compared to UMW-9729, H. contortus larvae” value (H. contortus xL3s; ratio of xL3 motility IC50 to parent UMW-9729) was 3 fold, the “Maximum motility inhibition (MMI), H. contortus xL3s” value (H. contortus xL3s; xL3s, 90 h incubation (table title)) was 73% and the IC50 (H. contortus xL3s; xL3s, 90 h incubation (table title), three independent assays in triplicate, read-out: Worm motility IC50 ± SD, H. contortus xL3s) was 1900 ± 140 nM. For the same compound, the “Worm motility IC50 ± SD, C. elegans young adults” value (C. elegans young adults) was “inactive” and the IC50 (C. elegans young adults; read-out: Worm motility IC50 ± SD, C. elegans young adults) was greater than 40 µM.
